Assay: Chemical stability in 90% deionized water after 24 hrs by NMR spectroscopy
Type: physicochemical
Conditions: read-out: Stability

Row | Structure (SMILES) | remaining at 24 h
1 | COC[C@@H]1CCCN1S(=O)(=O)c1ccc2c(c1)C(=O)C1=NCC3(CCCCC3)CN12 | 71%
2 | COC[C@@H]1CCCN1S(=O)(=O)c1ccc2c(c1)C(=O)C1=NCC3(CCC3)CN12 | 74%
3 | O=C1C2=NCC3(CCCCC3)CN2c2ccc(S(=O)(=O)N3CCC[C@H]3COc3ccccc3)cc21 | 72%
4 | O=C1C2=NCC3(CCC3)CN2c2ccc(S(=O)(=O)N3CCC[C@H]3COc3ccccc3)cc21 | 69%

Results, then the compound that gave them:

Row | remaining at 24 h | Structure (SMILES)
5 | 87% | COC[C@@H]1CCCN1S(=O)(=O)c1ccc2c(c1)C(=O)C1=NCC3(CCCC3)CN12
6 | 89% | O=C1C2=NCC3(CCCC3)CN2c2ccc(S(=O)(=O)N3CCC[C@H]3COc3ccccc3)cc21

From ChEMBL document CHEMBL1152675, “3,4-Dihydropyrimido(1,2-a)indol-10(2H)-ones as potent non-peptidic inhibitors of caspase-3” (Bioorg Med Chem, 2009)
